From ChEMBL document CHEMBL1201862, “PubChem BioAssay data set” (2004)
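Following 48 hours of exposure in 96-well plates, responses at five concentrations were used to interpolate endpoints linearly. Here, GI50 denotes the concentration required for 50% inhibition of growth.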 The source made the active and inactive calls. Rule as the data show it: active = GI50 up to about 1.1 µM and inactive = higher.

Columns and labels:
Assay in all cases: NCI tumour cell line growth inhibition, 48 h
[1] = test system: CAKI-1
[2] = test system: CCRF-CEM
[3] = test system: DU-145
[4] = test system: HCT-116
[5] = test system: HCT-15
[6] = test system: Hs-578T
[7] = test system: NCI/ADR-RES
[8] = test system: OVCAR-4
[9] = test system: OVCAR-5
[10] = test system: OVCAR-8
[11] = test system: RPMI-8226
[12] = test system: RXF 393
[13] = test system: SK-MEL-28
[14] = test system: SK-MEL-2
[15] = test system: SK-MEL-5
[16] = test system: SK-OV-3
[17] = test system: SNB-19
[18] = test system: TK-10
[19] = test system: U-251
[20] = test system: UACC-257

SMILES	GI50 [1]	GI50 [2]	GI50 [3]	GI50 [4]	GI50 [5]	GI50 [6]	GI50 [7]	GI50 [8]	GI50 [9]	GI50 [10]	GI50 [11]	GI50 [12]	GI50 [13]	GI50 [14]	GI50 [15]	GI50 [16]	GI50 [17]	GI50 [18]	GI50 [19]	GI50 [20]
CC(=O)OCC1OC(n2c(-c3cccs3)c3c(c(C#N)c2=S)-c2ccccc2CC3)C(OC(C)=O)C(OC(C)=O)C1OC(C)=O (stereo not given)	9.59 µM (inactive)	9.91 µM (inactive)	23.9 µM (inactive)	7.67 µM (inactive)	8.26 µM	7.52 µM (inactive)	17.7 µM (inactive)	5.32 µM (inactive)	26.5 µM (inactive)	5.38 µM (inactive)	3.28 µM (inactive)	8.28 µM (inactive)	13.7 µM (inactive)	5.48 µM (inactive)	6.18 µM (inactive)	20.2 µM (inactive)	13 µM (inactive)	6.19 µM (inactive)	10.1 µM (inactive)	12.8 µM (inactive)
CCCCC1Cc2cc(O)ccc2-c2n1c1cc(O)ccc1[n+]2C.CCCCC1Cc2cc(O)ccc2-c2n1c1ccc(O)cc1[n+]2C (stereo not given)	> 100 µM (inactive)	9.59 µM (inactive)	78.7 µM (inactive)	36.9 µM (inactive)	51.8 µM	5.47 µM (inactive)	> 100 µM (inactive)	27.7 µM (inactive)	63.5 µM (inactive)	28.3 µM (inactive)	9.73 µM (inactive)	34 µM (inactive)	6.64 µM (inactive)	32.7 µM (inactive)	4.05 µM (inactive)	57.3 µM (inactive)	1.49 µM (inactive)	22.1 µM (inactive)	1.1 µM (active)	11.6 µM (inactive)
O=c1c2sc3nc(NCCN4CCCCC4)ncc3c2ncn1-c1ccccc1	33 µM (inactive)	44.7 µM (inactive)	> 100 µM (inactive)	33.1 µM (inactive)	40.4 µM	36.4 µM (inactive)	62.5 µM (inactive)	> 100 µM (inactive)	> 100 µM (inactive)	45.5 µM (inactive)	80.4 µM (inactive)	20.6 µM (inactive)	55.2 µM (inactive)	34.2 µM (inactive)	19.2 µM (inactive)	> 100 µM (inactive)	67.9 µM (inactive)	48.3 µM (inactive)	44.4 µM (inactive)	31.3 µM (inactive)
CCOC(=O)[C@H](CO)NC1=C(Cl)C(=O)c2c(O)ccc(O)c2C1=O	> 10 µM (inactive)	> 10 µM (inactive)	> 10 µM (inactive)	> 10 µM (inactive)	> 10 µM	> 10 µM (inactive)	> 10 µM (inactive)	> 10 µM (inactive)	> 10 µM (inactive)	> 10 µM (inactive)	> 10 µM (inactive)	> 10 µM (inactive)	> 10 µM (inactive)	> 10 µM (inactive)	> 10 µM (inactive)	> 10 µM (inactive)	> 10 µM (inactive)	> 10 µM (inactive)	> 10 µM (inactive)	> 10 µM (inactive)
Cc1ccc(S(=O)(=O)N/N=C2\CCC3(O)CC2(C)CCC2C3CC2(C)C)cc1 (stereo not given)	37.2 µM (inactive)	> 100 µM (inactive)	36.2 µM (inactive)	30.7 µM (inactive)	36.2 µM	20 µM (inactive)	33.7 µM (inactive)	28.4 µM (inactive)	50.6 µM (inactive)	43.8 µM (inactive)	> 100 µM (inactive)	52.8 µM (inactive)	31.1 µM (inactive)	18.7 µM (inactive)	35.6 µM (inactive)	37 µM (inactive)	56.6 µM (inactive)	29.2 µM (inactive)	42.7 µM (inactive)	37.1 µM (inactive)
CCOC(=O)c1cc(-c2ccc(OC)c(OC)c2)c[nH]1	> 10 µM (inactive)	> 10 µM (inactive)	> 10 µM (inactive)	> 10 µM (inactive)	> 10 µM	> 10 µM (inactive)	> 10 µM (inactive)	> 10 µM (inactive)	> 10 µM (inactive)	> 10 µM (inactive)	> 10 µM (inactive)	> 10 µM (inactive)	> 10 µM (inactive)	> 10 µM (inactive)	> 10 µM (inactive)	> 10 µM (inactive)	> 10 µM (inactive)	> 10 µM (inactive)	> 10 µM (inactive)	> 10 µM (inactive)
